# Results reported in BindingDB's records for doi:10.1021/jm970140s (Merck Research Laboratories, 1997).
# Target: Vitamin K-dependent protein C (Homo sapiens) (UniProt P04070)
# Test: Inhibitory activity against human serine protease (act protein C )(7.5*10e6*)
# Sequence of Vitamin K-dependent protein C (Homo sapiens) (P04070 whole entry, looked up): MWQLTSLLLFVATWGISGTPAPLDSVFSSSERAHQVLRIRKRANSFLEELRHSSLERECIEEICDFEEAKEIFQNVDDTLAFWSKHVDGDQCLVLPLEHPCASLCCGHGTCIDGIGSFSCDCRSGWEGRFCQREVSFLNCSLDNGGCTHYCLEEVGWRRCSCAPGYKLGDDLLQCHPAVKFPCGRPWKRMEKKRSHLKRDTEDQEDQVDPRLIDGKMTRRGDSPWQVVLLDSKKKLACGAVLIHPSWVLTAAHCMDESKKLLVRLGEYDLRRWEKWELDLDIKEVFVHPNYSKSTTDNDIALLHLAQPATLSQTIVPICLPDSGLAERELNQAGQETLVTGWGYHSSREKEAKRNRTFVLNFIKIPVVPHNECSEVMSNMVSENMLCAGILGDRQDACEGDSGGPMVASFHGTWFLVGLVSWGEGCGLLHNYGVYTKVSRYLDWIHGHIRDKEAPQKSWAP
smiles,measurement,value
"NC1CCC(CNC(=O)[C@@H]2CCCN2C(=O)[C@H](N)C(C2CCCCC2)C2CCCCC2)CC1 (stereo partly specified) [1-(2-Amino-3,3-dicyclohexyl-propionyl)-pyrrolidine-2-carboxylic acid (4-amino-cyclohexylmethyl)-amide]",Ki,417 µM
